Our source for the insecticidal rate values is patent US9012493B2, “1-heterodiene derivative and pest control agent” (Nippon Soda Co., Ltd., priority 2009, dated 2015).

In one assay the test system is Sweetpotato Whitefly (Bemisia Tabaci). In words: Efficacy test against sweetpotato whitefly, sprayed tomato leaf. Conditions: 125 ppm, emulsifiable concentrate diluted with water, adults (type B), after 2 days, 25° C. Type of assay: in vivo. The procedure: (§1) Test Examples of the pest control agent thus obtained according to the present invention are shown below. In respective Test Examples, the insecticidal rate (%) was determined by the following calculation equation. Insecticidal rate (%)=(number of dead pests/number of released pests)×100
The emulsifiable concentrate obtained according to Formulation of Formulation Example 2 was diluted with water so as to control the concentration of the compound to 125 ppm. The diluted solution was sprayed over a tomato leaf obtained by cutting and then air-dried. Using absorbent cotton, the leaf was fixed to a flask so that a front surface of the leaf faces upward. Seven pairs of adults of sweetpotato whitefly (type B) were inoculated in this container, and the container was placed in a temperature-controlled room at a temperature of 25° C. and a humidity of 65%. After 2 days, life and death were examined and the insecticidal rate was determined. The test was repeated twice.
Turning to `C=C1SC(=Nc2ccc(C)cc2)C(=CSc2nccc(C)n2)CC1(C)C` [Compound 2-121], the insecticidal rate came out at 100%. On the same count and under the same terms, then `C=C1SC(=Nc2c(C)cccc2C)C(=CSc2ccccc2)CC1(C)C` [Compound 2-62], with 100%; and `C=C1CCC(=CSc2ccc(F)cc2)C(=Nc2ccc(OC)cc2)S1` [Compound 2-9], with 100%.

In the case of `C=C1CCC(=CSc2ccccc2)C(=Nc2ccc(OC)cc2)S1` [Compound 2-8], the insecticidal rate is given as 100%.

As to `C=C1SC(=Nc2ccc(C)cc2)C(=CSC2CCCCC2)CC1(C)C` (mixture of isomers) [Compound 6-5], the insecticidal rate worked out at 100%. For `C=C1SC(=Nc2cccc(OC)c2)C(=CSc2ccccc2)CC1(C)C` [Compound 2-25], the insecticidal rate is listed as 100%. Same read-out and setting: then `C=C1SC(=Nc2ccc(C)cc2)C(=CSc2ccc(F)cc2)CC12CCOCC2` [Compound 2-57], with 100%; and `C=C1SC(=Nc2ccc(C)cc2)C(=CSc2nccc(C(F)(F)F)n2)CC1(C)C` [Compound 2-98], with 100%. On the same count and under the same terms, then `C=C1SC(=Nc2ccc(C)cc2Cl)C(=CSc2ccccc2)CC1(C)C` [Compound 2-26], with 100%. In turn, `C=C1SC(=Nc2ccc(C)cc2)C(=CSc2ccc(OC)cc2)CC1(C)C` [Compound 2-18] displayed an insecticidal rate of 100%. Take `CC(C)=C1CC(=CSc2ccccc2)C(=Nc2ccc(Cl)cc2)S1` [Compound 1-2]: the insecticidal rate was 100%. Still for that read-out and setting: then `C=C1SC(=Nc2ccccc2)C(=CSc2nc(C)cnc2C)CC1(C)C` [Compound 2-131], with 100%; and `C=C1SC(=Nc2ccc(OC)cc2)C(=CSc2cccs2)CC1(C)C` [Compound 4-4], with 100%. On the same count and under the same terms, under `C=C1SC(=Nc2ccc(OC)cc2)C(=CSc2ccc(C(F)(F)F)cn2)CC1(C)C` [Compound 2-95] stands 100%; under `C=C1SC(=Nc2ccc(OC)cc2)C(=CSc2ccccc2)CC1(C)CCC=C(C)C` (racemic) [Compound 2-130], 100%; under `C=C1SC(=Nc2cc(Cl)ccc2Cl)C(=CSc2ccccc2)CC1(C)C` [Compound 2-44], 100%. `C=C1CCC(=CSc2ccccc2)C(=Nc2ccc(C(F)(F)F)cc2)S1` [Compound 2-5]: the insecticidal rate came to 100%. On to `C=C1SC(=Nc2ccc(OC)cc2)C(=CSc2cccc(Oc3ccccc3)c2)CC1(C)C` [Compound 2-109], for which the insecticidal rate is 100%. Still for that read-out and setting: then `C=C1SC(=Nc2ccc(C)cc2)C(=CSc2ccc3ccccc3c2)CC1(C)C` (mixture of isomers) [Compound 2-88], with 100%.

As for `C=C1CCC(=CSc2ccccc2)C(=Nc2ccc(Cl)cc2)S1` [Compound 2-1], the insecticidal rate stood at 100%.

In turn, `C=C1SC(=Nc2ccc(C)cc2)C(=CSc2sccc2OC)CC1(C)C` [Compound 2-116] yielded an insecticidal rate of 100%.

Compound `C=C1SC(=Nc2ccc(C)cc2)C(=CSc2cc(C)oc2C)CC1(C)C` [Compound 2-123] showed an insecticidal rate of 100%. Same read-out and setting: under `C=C1SC(=Nc2ccc(C)cc2)C(=CSc2nccc(OC)n2)CC1(C)C` [Compound 2-133] stands 100%.

`C=C1SC(=Nc2ccc(C)cc2)C(=CSc2ccc(F)cc2)CC12CCCCC2` [Compound 2-24] showed an insecticidal rate of 100%. Still for that read-out and setting: under `C=C1SC(=Nc2ccc(C)cc2)C(=CSC(C)(C)C)CC1(C)C` [Compound 2-74] stands 100%. Compound `CC(C)=C1CC(=CSc2ccccc2)C(=[NH+]c2ccc(Cl)cc2)S1.F[B-](F)(F)F` [Compound 1-3] showed an insecticidal rate of 100%.

`C=C1SC(=Nc2ccc(C)cc2)C(=CSC2CCc3ccccc32)CC1(C)C` (racemic) [Compound 2-115] returned an insecticidal rate of 100%. Compound `C=C1SC(=Nc2ccc(C)cc2)C(=CSc2nccs2)CC1(C)C` [Compound 4-3] returned an insecticidal rate of 100%.

A further assay concerns Rice Armyworm (Mythimna Separata). In words: Efficacy test against rice armyworm, corn leaf dip. The format is in vivo. Conditions: 125 ppm, emulsifiable concentrate diluted with water, corn leaves immersed, second instar larvae, after 5 days, 25° C. The procedure: as §1
The emulsifiable concentrate obtained according to Formulation of Formulation Example 2 was diluted with water so as to control the concentration of the compound to 125 ppm. Leaves of corn were immersed in this diluted solution for 30 seconds and then air-dried. The leaves were put in a petri dish on which a filter paper is laid, and then five second instar larvae of rice armyworm were inoculated. After covering the petri dish with a glass lid, the petri dish was placed in a temperature-controlled room at a temperature of 25° C. and a humidity of 65%. After 5 days, life and death were examined and the insecticidal rate was determined. The test was repeated twice.
`C=C1SC(=Nc2ccc(C)cc2)C(=CSc2nccc(C)n2)CC1(C)C` [Compound 2-121] displayed an insecticidal rate of 100%. For the compound `C=C1SC(=Nc2c(C)cccc2C)C(=CSc2ccccc2)CC1(C)C` [Compound 2-62], the insecticidal rate came to 100%.

`C=C1CCC(=CSc2ccc(F)cc2)C(=Nc2ccc(OC)cc2)S1` [Compound 2-9] yielded an insecticidal rate of 100%. For the compound `C=C1CCC(=CSc2ccccc2)C(=Nc2ccc(OC)cc2)S1` [Compound 2-8], the insecticidal rate was determined as 100%.

`C=C1SC(=Nc2ccc(C)cc2)C(=CSC2CCCCC2)CC1(C)C` (mixture of isomers) [Compound 6-5] gave an insecticidal rate of 100%.

`C=C1SC(=Nc2ccc(C)cc2)C(=CSc2ccc([N+](=O)[O-])cc2)CC1(C)C` (mixture of isomers) [Compound 6-4] showed an insecticidal rate of 100%.

In turn, `C=C1SC(=Nc2cccc(OC)c2)C(=CSc2ccccc2)CC1(C)C` [Compound 2-25] came in with an insecticidal rate of 100%. With `C=C1SC(=Nc2ccc(C)cc2)C(=CSc2ccc(F)cc2)CC12CCOCC2` [Compound 2-57], the insecticidal rate worked out at 100%. Take `C=C1SC(=Nc2ccc(C)cc2)C(=CSc2nccc(C(F)(F)F)n2)CC1(C)C` [Compound 2-98]: the insecticidal rate is recorded as 100%.

On to `C=C1SC(=Nc2ccc(C)cc2Cl)C(=CSc2ccccc2)CC1(C)C` [Compound 2-26], for which the insecticidal rate is recorded as 100%. Still for that read-out and setting: under `C=C1SC(=Nc2ccc(C)cc2)C(=CSc2ccc(OC)cc2)CC1(C)C` [Compound 2-18] stands 100%; under `CC(C)=C1CC(=CSc2ccccc2)C(=Nc2ccc(Cl)cc2)S1` [Compound 1-2], 100%; under `C=C1SC(=Nc2ccccc2)C(=CSc2nc(C)cnc2C)CC1(C)C` [Compound 2-131], 100%. Turning to `C=C1SC(=Nc2ccc(OC)cc2)C(=CSc2cccs2)CC1(C)C` [Compound 4-4], the insecticidal rate was determined as 100%. Still for that read-out and setting: under `C=C1SC(=Nc2ccc(OC)cc2)C(=CSc2ccc(C(F)(F)F)cn2)CC1(C)C` [Compound 2-95] stands 100%; under `C=C1SC(=Nc2ccc(OC)cc2)C(=CSc2ccccc2)CC1(C)CCC=C(C)C` (racemic) [Compound 2-130], 100%; under `C=C1SC(=Nc2ccc(C)cc2)C(=CSc2cc(C(F)(F)F)ccn2)CC1(C)C` [Compound 2-126], 100%. Consider `C=C1SC(=Nc2cc(Cl)ccc2Cl)C(=CSc2ccccc2)CC1(C)C` [Compound 2-44], for which the insecticidal rate came out at 100%. Compound `C=C1CCC(=CSc2ccccc2)C(=Nc2ccc(C(F)(F)F)cc2)S1` [Compound 2-5] showed an insecticidal rate of 100%.

`C=C1SC(=Nc2ccc(C)cc2)C(=CSc2ccc3ccccc3c2)CC1(C)C` (mixture of isomers) [Compound 2-88]: the insecticidal rate turned out to be 100%. On the same count and under the same terms, under `C=C1CCC(=CSc2ccccc2)C(=Nc2ccc(Cl)cc2)S1` [Compound 2-1] stands 100%. Same read-out and setting: under `C=C1SC(=Nc2ccc(OC)cc2)C(=CSc2ccc(C=O)cc2)CC1(C)C` [Compound 2-82] stands 100%. On the same count and under the same terms, then `C=C1SC(=Nc2ccc(OC)cc2OC)C(=CSc2ccccc2)CC1(C)C` [Compound 2-30], with 100%; and `C=C1SC(=Nc2ccc(C)cc2)C(=CSc2sccc2OC)CC1(C)C` [Compound 2-116], with 100%.

`C=C1CCC(=CSc2ccccn2)C(=Nc2ccc(C)cc2)S1` [Compound 4-1] gave an insecticidal rate of 100%. With `C=C1SC(=Nc2ccc(C)cc2)C(=CSc2cc(C)oc2C)CC1(C)C` [Compound 2-123], the insecticidal rate was 100%.

The compound `C=C1SC(=Nc2ccc(C)cc2)C(=CSc2nccc(OC)n2)CC1(C)C` [Compound 2-133] displayed an insecticidal rate of 100%. The compound `C=C1SC(=Nc2ccc(C)cc2)C(=CSc2ccc(F)cc2)CC12CCCCC2` [Compound 2-24] showed an insecticidal rate of 100%. `C=C1SC(=Nc2ccc(C)cc2)C(=CSc2ccccc2CO)CC1(C)C` [Compound 2-96] displayed an insecticidal rate of 100%. On the same count and under the same terms, then `C=C1SC(=Nc2ccc(C)cc2)C(=CSC(C)(C)C)CC1(C)C` [Compound 2-74], with 100%; and `CC(C)=C1CC(=CSc2ccccc2)C(=[NH+]c2ccc(Cl)cc2)S1.F[B-](F)(F)F` [Compound 1-3], with 100%. In the case of `C=C1SC(=Nc2ccc(C)cc2)C(=CSC2CCc3ccccc32)CC1(C)C` (racemic) [Compound 2-115], the insecticidal rate was determined as 100%. The same measure, in the same setting: then `C=C1SC(=Nc2ccc(C)cc2)C(=CSc2ccc(NC(C)=O)cc2)CC1(C)C` [Compound 2-21], with 100%. Same read-out and setting: under `COc1ccc(N=C2SC(=C(C)C)CCC2=CSc2ncccn2)cc1` [Compound 2-43] stands 100%. Still for that read-out and setting: then `C=C1SC(=Nc2ccc(OC)cc2)C(=CSc2ccccn2)CC1(C)C` [Compound 4-2], with 100%.

The next assay deals with Cotton Aphid (Aphis Gossypii). The assay is described as follows: Efficacy test against cotton aphid, spray on cucumber plant. Type of assay: in vivo. Conditions: 125 ppm, emulsifiable concentrate diluted with water, sprayed over cucumber plant with nymphs, after 5 days, 25° C. As for the experimental part: as §1
The emulsifiable concentrate obtained according to Formulation of Formulation Example 2 was diluted with water so as to control the concentration of the compound to 125 ppm. Adults of cotton aphids were inoculated to a cucumber plant (approximately 10 days after sprouting) sown in a 3 sun/size pot (9 cm). After 1 day, adult aphids were removed and the diluted solution was sprayed over the cucumber plant on which delivered nymphs are parasitic. The pot was placed in a temperature-controlled room at a temperature of 25° C. and a humidity of 65%. After 5 days, life and death were examined and the insecticidal rate was determined. The test was repeated twice.
As for `C=C1SC(=Nc2ccc(C)cc2)C(=CSc2nccc(C)n2)CC1(C)C` [Compound 2-121], the insecticidal rate is given as 100%. On the same count and under the same terms, under `C=C1SC(=Nc2c(C)cccc2C)C(=CSc2ccccc2)CC1(C)C` [Compound 2-62] stands 100%.

`C=C1CCC(=CSc2ccc(F)cc2)C(=Nc2ccc(OC)cc2)S1` [Compound 2-9]: the insecticidal rate stood at 100%. `C=C1CCC(=CSc2ccccc2)C(=Nc2ccc(OC)cc2)S1` [Compound 2-8] gave an insecticidal rate of 100%. On the same count and under the same terms, under `C=C1SC(=Nc2cccc(OC)c2)C(=CSc2ccccc2)CC1(C)C` [Compound 2-25] stands 100%. Turning to `C=C1SC(=Nc2ccc(C)cc2)C(=CSc2ccc(F)cc2)CC12CCOCC2` [Compound 2-57], the insecticidal rate is on record as 100%. Regarding `C=C1SC(=Nc2ccc(C)cc2)C(=CSc2nccc(C(F)(F)F)n2)CC1(C)C` [Compound 2-98], the insecticidal rate was determined as 100%. On the same count and under the same terms, then `C=C1SC(=Nc2ccc(C)cc2Cl)C(=CSc2ccccc2)CC1(C)C` [Compound 2-26], with 100%; and `C=C1SC(=Nc2ccc(C)cc2)C(=CSc2ccc(OC)cc2)CC1(C)C` [Compound 2-18], with 100%; and `C=C1SC(=Nc2ccc(C)cc2)C(=CSc2cc(C(F)(F)F)ccn2)CC1(C)C` [Compound 2-126], with 100%.

In turn, `C=C1SC(=Nc2ccc(OC)cc2OC)C(=CSc2ccccc2)CC1(C)C` [Compound 2-30] gave an insecticidal rate of 100%. With `COc1ccc(N=C2SC(=C(C)C)CCC2=CSc2ccccc2)cc1` [Compound 2-23], the insecticidal rate was 100%. The same measure, in the same setting: under `C=C1CCC(=CSc2ccccn2)C(=Nc2ccc(C)cc2)S1` [Compound 2-7] stands 100%.
